Measurements from the supplement of paper PMC10307832.

What was measured:
Assay in all cases: relative viability (nuclei count vs DMSO), 5 days (fraction); higher = more cells survive
ABC-1 = settings: first compound 0.5 µM
Method in brief: (§1)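 Relative viability is defined as nuclei in treated wells over nuclei in vehicle wells. Duplicate plates were run and medians reported. Lung cancer cell lines in 1536-well plates were dosed by pin tool one day after seeding, with one drug or with a fixed anchor-drug dose plus five library-drug doses (not always all listed) in √10 steps, and nuclei were counted after 5 days.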

NCI-H441 = tested on: NCI-H441
Method in brief: as §1

NCI-H460 = tested on: NCI-H460
Method in brief: as §1

LOU-NH91 = tested on: LOU-NH91
Method in brief: as §1

SW 900 = tested on: SW 900
Method in brief: as §1

NCI-H1437 = tested on: NCI-H1437
Method in brief: as §1

HCC-366 = tested on: HCC-366
Method in brief: as §1

PC-14 = tested on: PC-14
Method in brief: as §1

201T = tested on: 201T
Method in brief: as §1

LK-2 = tested on: LK-2
Method in brief: as §1

CAL-12T = tested on: CAL-12T
Method in brief: as §1

NCI-H3122 = tested on: NCI-H3122
Method in brief: as §1

Nc1ccn([C@@H]2O[C@H](CO)[C@@H](O)[C@@H]2O)c(=O)n1 [Cytarabine] + Cc1nc(Nc2ncc(C(=O)Nc3c(C)cccc3Cl)s2)cc(N2CCN(CCO)CC2)n1 [Dasatinib] (partner 0.075 µM)
relative viability (ABC-1): 0.332 | relative viability (NCI-H441; first compound 0.005 µM): 0.545 | relative viability (NCI-H441; first compound 0.01581 µM): 0.533 | relative viability (NCI-H441; first compound 0.05 µM): 0.485 | relative viability (NCI-H441; first compound 0.1581 µM): 0.324 | relative viability (NCI-H441; first compound 0.5 µM): 0.293 | relative viability (NCI-H460; first compound 0.005 µM): 0.394 | relative viability (NCI-H460; first compound 0.01581 µM): 0.259 | relative viability (NCI-H460; first compound 0.05 µM): 0.105 | relative viability (NCI-H460; first compound 0.1581 µM): 0.0311 | relative viability (NCI-H460; first compound 0.5 µM): 0.0213 | relative viability (LOU-NH91; first compound 0.005 µM): 0.542 | relative viability (LOU-NH91; first compound 0.01581 µM): 0.555 | relative viability (LOU-NH91; first compound 0.05 µM): 0.422 | relative viability (LOU-NH91; first compound 0.1581 µM): 0.416 | relative viability (LOU-NH91; first compound 0.5 µM): 0.398 | relative viability (SW 900; first compound 0.005 µM): 0.837 | relative viability (SW 900; first compound 0.01581 µM): 0.446 | relative viability (SW 900; first compound 0.05 µM): 0.314 | relative viability (NCI-H1437; first compound 0.005 µM): 0.395 | relative viability (NCI-H1437; first compound 0.01581 µM): 0.26 | relative viability (NCI-H1437; first compound 0.05 µM): 0.228 | relative viability (NCI-H1437; first compound 0.1581 µM): 0.142 | relative viability (NCI-H1437; first compound 0.5 µM): 0.165 | relative viability (HCC-366; first compound 0.005 µM): 0.573 | relative viability (HCC-366; first compound 0.01581 µM): 0.402 | relative viability (HCC-366; first compound 0.05 µM): 0.424 | relative viability (HCC-366; first compound 0.1581 µM): 0.148 | relative viability (HCC-366; first compound 0.5 µM): 0.0563 | relative viability (PC-14; first compound 0.005 µM): 0.232 | relative viability (PC-14; first compound 0.01581 µM): 0.234 | relative viability (PC-14; first compound 0.05 µM): 0.18 | relative viability (PC-14; first compound 0.1581 µM): 0.0381 | relative viability (PC-14; first compound 0.5 µM): 0.0648 | relative viability (201T; first compound 0.005 µM): 0.659 | relative viability (201T; first compound 0.01581 µM): 0.642 | relative viability (201T; first compound 0.05 µM): 0.709 | relative viability (201T; first compound 0.1581 µM): 0.444 | relative viability (201T; first compound 0.5 µM): 0.501 | relative viability (LK-2; first compound 0.005 µM): 0.309 | relative viability (LK-2; first compound 0.01581 µM): 0.27 | relative viability (LK-2; first compound 0.05 µM): 0.236 | relative viability (LK-2; first compound 0.1581 µM): 0.157 | relative viability (LK-2; first compound 0.5 µM): 0.163 | relative viability (CAL-12T; first compound 0.005 µM): 0.302 | relative viability (CAL-12T; first compound 0.01581 µM): 0.306 | relative viability (CAL-12T; first compound 0.05 µM): 0.447 | relative viability (CAL-12T; first compound 0.1581 µM): 0.284 | relative viability (CAL-12T; first compound 0.5 µM): 0.109 | relative viability (NCI-H3122; first compound 0.005 µM): 0.807 | relative viability (NCI-H3122; first compound 0.01581 µM): 0.76 | relative viability (NCI-H3122; first compound 0.05 µM): 0.789 | relative viability (NCI-H3122; first compound 0.1581 µM): 0.349 | relative viability (NCI-H3122; first compound 0.5 µM): 0.17
